Assay [1] has as its system epitrochlearis muscle from Wistar rats. In words: 3-O-methyl-glucose transport in isolated epitrochlearis muscle. It counts as cell-based. The settings on record: 25 μM inhibitor, Wistar rat epitrochlearis muscle. How it is done:
The influence of total DGK activity on insulin-stimulated glucose uptake was assessed by measurements on epitrochlearis muscle from Wistar rats using a specific inhibitor for diacylglycerol kinase, DGK inhibitor II™ (Jang, Y. et al. (2000) Biochem. Pharmacol. 59: 763-772).
Media were prepared from a pre-gassed (95% O2/5% CO2) Krebs Henseleit buffer (KHB) containing 5 mM glucose and 0.1% BSA (RIA grade). Epitrochlearis muscles were incubated (20 min) in a shaking water bath (30° C.) in 2 ml of KHB, supplemented with 20 mM mannitol, with or without 2.4 nM insulin and 25 μM DGK-II inhibitor (Calbiochem). Muscles were transferred to KHB containing 8 mM 3-O-methyl[^3H]glucose (438 μCi/mmol; 1 Ci=[…]) and 12 mM [^14C]mannitol (42 μCi/mmol) and incubated (10 min) with or without insulin and 25 μM of DGKII inhibitor. 3-O-methyl-glucose transport activity was assessed as described (Wallberg-Henriksson et al. (1987) J. Biol. Chem. 262: 7665-7671) and expressed as micromoles per milliliter of intracellular water per hour.

The subject of assay [2] is total DGK activity. The experiment in a line: Reduction of total DGK activity by DGK inhibitor (data not shown). It counts as biochemical.
For another assay, the system named is DGKδ. In words: DGKδ protein expression in gastrocnemius skeletal muscle by immunoblotting after phlorizin treatment. The settings on record: GK rats, phlorizin 0.8 g/kg body wt per day s.c. for 4 weeks. It counts as in vivo. How it is done: (§1) In order to investigate the influence of DGKδ on insulin-stimulated glucose uptake in more detail, DGKδ expression studies and measurements of DGK activity were performed in GK rats, a lean animal model for type 2 diabetes (Goto et al., pp. 301-303 in: Frontiers in Diabetes Research (Shafrir E., Renold, A E, Eds.) London, John Libbey, 1988). Male GK rats (200-250 g) were obtained from the Karolinska Institute, Sweden. Weight-matched male Wistar rats served as controls (B&K Universal, Sollentuna, Sweden). All rats were maintained under a 12-hour light/dark cycle, and had free access to water and standard rodent diet. Four groups of animals were studied: vehicle-treated Wistar rats (n=5), phlorizin-treated Wistar rats (n=6), vehicle-treated GK-rats (n=6) and phlorizin-treated GK-rats (n=6). […]
Portions of the gastrocnemius skeletal muscle (approximately 30 mg) were crushed in liquid N2 and then lysed in ice-cold buffer (137 mM NaCl, 2.7 mM KCl, 1 mM MgCl2, 0.5 mM Na3VO4, 1% Triton X-100, 10% glycerol, 20 mM Tris pH 8.0, […] leupeptin, 0.2 mM PMSF, 10 mM NaF, 10 μg/ml aprotinin). […] The supernatant was removed and protein concentration was determined. […] Proteins were visualized by ECL and quantified by densitometric scanning.
(In general: A western blot detects proteins with antibodies after separation by electrophoresis.)

Assay [3] deals with total DGK activity. In words: Octyl glucoside/PS mixed-micelle assay of total DGK activity in gastrocnemius muscle after phlorizin treatment. The settings on record: GK rats, phlorizin 0.8 g/kg body wt per day s.c. for 4 weeks. It counts as in vivo. How it is done: as §1, with “diet.” for “diet. Four groups of animals were studied: vehicle-treated Wistar rats (n=5), phlorizin-treated Wistar rats (n=6), vehicle-treated GK-rats (n=6) and phlorizin-treated GK-rats (n=6).”
Portions of the gastrocnemius skeletal muscle (approximately 30 mg) were crushed in liquid nitrogen, homogenized by sonication in ice-cold buffer containing 20 mM Tris-HCl, pH 7.5, 250 mM sucrose, 1 mM EDTA, 1 mM EGTA, 1 mM dithiothreitol (DTT), 1 mM PMSF, a 20 μg/ml concentration of each: leupeptin, pepstatin, aprotinin, and soybean trypsin inhibitor and centrifuged at 12,000×g for 10 min at 4° C. The supernatant was collected and protein concentration was determined.
An octyl glucoside/PS mixed-micelle assay of total DGK activity was performed using [γ-^32P] […] The region containing phosphatidic acid was quantified by phosphoimaging and densitometry.

For assay [4] the following is noted: diabetic GK rats, treatment with phlorizin; cited from earlier work.

Regarding `O=c1c2ccccc2[nH]c(=S)n1CCN1CCC(=C(c2ccc(F)cc2)c2ccc(F)cc2)CC1` [DGK inhibitor II™], the “decrease of insulin-stimulated glucose transport” value in assay [1] (2.4 nM insulin) was “approximately 30%”. Besides, the basal glucose transport entry in assay [1] (without insulin) was “not affected”. Also, the “reduction of total DGK activity” value with total DGK activity [2] came to 70%.

Take `O=C(CCc1ccc(O)cc1)c1c(O)cc(O)cc1O[C@@H]1O[C@H](CO)[C@@H](O)[C@H](O)[C@H]1O` [phlorizin, Phlorizin]: the “DGK content in the muscle (DGKδ protein level, immunoblot densitometry)” value with DGKδ is given as “increase of DGK content in the muscle to approximately the same values as measured in healthy Wistar rats”. Further, in the assay on total DGK activity [3], the “total DGK activity in muscle” value is “increase of total DGK activity in GK rat muscle upon phlorizin treatment to a level measured in muscle from healthy Wistar rats”. Further, the blood glucose levels result in assay [4] is given as “brings glucose levels back to normal values”.
